Experimental findings from patent publication US11642671B2, “Electrowetting on dielectric (EWOD) device to perform liquid-to-liquid extraction (LLE) of biomolecules and systems and methods for using the EWOD device” (Board of Regents, The University of Texas System, priority 2019, dated 2023) are described below.

Molecules are shown by their SMILES.

A short description of this series: Multistage LLE (MLLE) of binary dye mixture on EWOD device with IL extractant. Format: physicochemical. The conditions noted are these: binary 1:1 green/yellow dye sample. The procedure:
The sample phase was prepared by mixing equal amounts of these two dyes. The final concentration of each analyte in the sample mixture formed was 1250 μg/ml for all the EWOD LLE experiments. […]
For the LLE process on an EWOD DMF electrode array, the droplets were generated, mixed, and split during the process. […] The on-chip concentration method quantified the yield of the LLE process. […]
In order to explore this characteristic of EWOD, MLLE was performed in this study with two cycles of LLE. […] After each cycle of the process, the sample droplet was transported to the concentration measurement electrode, and the voltage measurement was done for absorbance.
Next, the results of binary separation by MLLE performed on the EWOD device 20 was compared with theoretical values. The theoretical values were calculated from the partition coefficient values of each solute obtained in the manner described above. […]

As to `Cc1ccc(Nc2ccc(Nc3ccc(C)cc3S(=O)(=O)[O-])c3c2C(=O)c2ccccc2C3=O)c(S(=O)(=O)[O-])c1.[Na+].[Na+]` [green dye, acid green 25], the “green dye extracted after first cycle of LLE on EWOD” value (IL extractant, extraction time 5 minutes) is about 50%. Under “fresh IL droplet, two MLLE cycles”, the “initial green dye extracted at the end of the second cycle” value is about 60%.
